PMC4447944 (The Journal of Biological Chemistry, 2015)

Columns and labels:
hCSNK2A1 = molecular target: T1, hCSNK2A1 (Homo sapiens, UniProt P68400); experiment: KINOMEscan; type: binding
T1 construct: purchased DiscoverX (KINOMEscan platform)

hABL1(pE255K) = molecular target: T2, hABL1(pE255K) (Homo sapiens, UniProt P00519, E255K); experiment: KINOMEscan; type: binding
T2 construct: purchased DiscoverX (KINOMEscan platform)

hADORA3 = molecular target: T3, hADORA3 (Homo sapiens, UniProt P0DMS8); experiment: cAMP Potentiation (Eurofins-CEREP); details: @ 10 μM
T3 sequence (P0DMS8 1-318): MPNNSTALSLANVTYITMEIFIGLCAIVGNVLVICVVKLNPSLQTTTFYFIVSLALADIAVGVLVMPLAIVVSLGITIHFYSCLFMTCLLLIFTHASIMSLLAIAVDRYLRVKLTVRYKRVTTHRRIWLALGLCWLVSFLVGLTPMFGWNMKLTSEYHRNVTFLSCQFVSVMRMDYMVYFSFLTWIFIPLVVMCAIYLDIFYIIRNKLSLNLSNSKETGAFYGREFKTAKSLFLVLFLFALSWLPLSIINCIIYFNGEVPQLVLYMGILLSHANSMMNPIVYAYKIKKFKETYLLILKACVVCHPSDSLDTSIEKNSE

hADRα2A [1] = molecular target: T4, hADRα2A (Homo sapiens, UniProt P08913); experiment: cAMP Potentiation (Eurofins-CEREP); details: @ 10 μM
T4 sequence (P08913 1-465): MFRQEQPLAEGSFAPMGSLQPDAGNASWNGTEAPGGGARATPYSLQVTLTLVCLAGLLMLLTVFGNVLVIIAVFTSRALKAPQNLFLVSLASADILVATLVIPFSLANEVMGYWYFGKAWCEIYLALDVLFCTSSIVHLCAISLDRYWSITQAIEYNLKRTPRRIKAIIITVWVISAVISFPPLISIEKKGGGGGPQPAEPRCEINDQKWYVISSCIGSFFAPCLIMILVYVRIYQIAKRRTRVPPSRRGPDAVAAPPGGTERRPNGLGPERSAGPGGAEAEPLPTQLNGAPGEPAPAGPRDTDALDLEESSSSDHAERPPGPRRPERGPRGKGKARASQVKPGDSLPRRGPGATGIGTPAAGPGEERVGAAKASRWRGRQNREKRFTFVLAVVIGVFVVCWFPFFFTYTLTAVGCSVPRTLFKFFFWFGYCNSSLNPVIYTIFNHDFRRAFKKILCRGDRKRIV

hMEK6 = molecular target: T5, hMEK6 (Homo sapiens, UniProt P52564); experiment: KINOMEscan; type: binding
T5 construct: purchased DiscoverX

hMAPKAPK2 = molecular target: T6, hMAPKAPK2 (Homo sapiens, UniProt P49137); experiment: KINOMEscan; type: binding
T6 construct: purchased DiscoverX

[2] = molecular target: T7, hEGFR(L747-E749del, A750P) (Homo sapiens, UniProt P00533, A750P/DEL747-749); experiment: KINOMEscan; type: binding
T7 construct: purchased DiscoverX

hYANK2 = molecular target: T8, hYANK2 (Homo sapiens, UniProt Q9NY57); experiment: KINOMEscan; type: binding
T8 construct: purchased DiscoverX

hRAF1 = molecular target: T9, hRAF1 (Homo sapiens, UniProt P04049); experiment: KINOMEscan; type: binding
T9 construct: purchased DiscoverX (KINOMEscan platform)

hHIPK3 = molecular target: T10, hHIPK3 (Homo sapiens, UniProt Q9H422); experiment: KINOMEscan; type: binding
T10 construct: purchased DiscoverX

hACVR2A = molecular target: T11, hACVR2A (Homo sapiens, UniProt P27037); experiment: KINOMEscan; type: binding
T11 construct: purchased DiscoverX (KINOMEscan platform)

hRIPK5 = molecular target: T12, hRIPK5 (Homo sapiens, UniProt Q6XUX3); experiment: KINOMEscan; type: binding
T12 construct: purchased DiscoverX (KINOMEscan platform)

hCSNK1E = molecular target: T13, hCSNK1E (Homo sapiens, UniProt P49674); experiment: KINOMEscan; type: binding
T13 construct: purchased DiscoverX (KINOMEscan platform)

hADRβ1 = hADRβ1 (Homo sapiens, UniProt P08588); experiment: β-arrestin Antagonist (Eurofins-CEREP); details: read-out: % Effect, Inhibition
hABL1(pF317I) = molecular target: T14, hABL1(pF317I) (Homo sapiens, UniProt P00519, F317I); experiment: KINOMEscan; type: binding
T14 construct: purchased DiscoverX (KINOMEscan platform)

hRET(M918T) = molecular target: T15, hRET(M918T) (Homo sapiens, UniProt P07949, M918T); experiment: KINOMEscan; type: binding
T15 construct: purchased DiscoverX (KINOMEscan platform)

hJAK2(JH1Dom.-catalytic) = molecular target: T16, hJAK2(JH1Dom.-catalytic) (Homo sapiens, UniProt O60674); experiment: KINOMEscan; type: binding
T16 construct: hJAK2(JH1Dom.-catalytic); purchased DiscoverX (KINOMEscan panel)

hPIP5K1A = molecular target: T17, hPIP5K1A (Homo sapiens, UniProt Q99755); experiment: KINOMEscan; type: binding
T17 construct: purchased DiscoverX

hSRPK3 = molecular target: T18, hSRPK3 (Homo sapiens, UniProt Q9UPE1); experiment: KINOMEscan; type: binding
T18 construct: purchased DiscoverX (KINOMEscan platform)

hEPHB1 = molecular target: T19, hEPHB1 (Homo sapiens, UniProt P54762); experiment: KINOMEscan; type: binding
T19 construct: purchased DiscoverX

hADRα2A [3] = molecular target: T4, hADRα2A; experiment: β-arrestin Antagonist (Eurofins-CEREP); details: read-out: % Effect, Inhibition
hHIPK1 = molecular target: T20, hHIPK1 (Homo sapiens, UniProt Q86Z02); experiment: KINOMEscan; type: binding
T20 construct: purchased DiscoverX

hBMX = molecular target: T21, hBMX (Homo sapiens, UniProt P51813); experiment: KINOMEscan; type: binding
T21 construct: purchased DiscoverX

hLTK = molecular target: T22, hLTK (Homo sapiens, UniProt P29376); experiment: KINOMEscan; type: binding
T22 construct: purchased DiscoverX (KINOMEscan platform)

hMKNK2 = molecular target: T23, hMKNK2 (Homo sapiens, UniProt Q9HBH9); experiment: KINOMEscan; type: binding
T23 construct: purchased DiscoverX
T23 sequence (Q9HBH9 whole entry): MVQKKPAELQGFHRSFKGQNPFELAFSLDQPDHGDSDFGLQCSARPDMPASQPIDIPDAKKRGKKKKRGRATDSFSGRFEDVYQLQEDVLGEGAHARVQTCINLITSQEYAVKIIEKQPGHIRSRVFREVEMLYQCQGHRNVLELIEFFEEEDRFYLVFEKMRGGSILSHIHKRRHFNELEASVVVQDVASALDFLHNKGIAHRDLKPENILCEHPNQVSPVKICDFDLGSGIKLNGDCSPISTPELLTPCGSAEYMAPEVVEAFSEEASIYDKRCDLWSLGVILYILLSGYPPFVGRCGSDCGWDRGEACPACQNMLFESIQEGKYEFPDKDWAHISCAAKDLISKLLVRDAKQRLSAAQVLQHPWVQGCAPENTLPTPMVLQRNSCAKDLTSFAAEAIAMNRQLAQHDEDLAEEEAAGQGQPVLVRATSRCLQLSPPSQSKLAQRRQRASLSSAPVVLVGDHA

hADRβ1, sequence (P08588 whole entry): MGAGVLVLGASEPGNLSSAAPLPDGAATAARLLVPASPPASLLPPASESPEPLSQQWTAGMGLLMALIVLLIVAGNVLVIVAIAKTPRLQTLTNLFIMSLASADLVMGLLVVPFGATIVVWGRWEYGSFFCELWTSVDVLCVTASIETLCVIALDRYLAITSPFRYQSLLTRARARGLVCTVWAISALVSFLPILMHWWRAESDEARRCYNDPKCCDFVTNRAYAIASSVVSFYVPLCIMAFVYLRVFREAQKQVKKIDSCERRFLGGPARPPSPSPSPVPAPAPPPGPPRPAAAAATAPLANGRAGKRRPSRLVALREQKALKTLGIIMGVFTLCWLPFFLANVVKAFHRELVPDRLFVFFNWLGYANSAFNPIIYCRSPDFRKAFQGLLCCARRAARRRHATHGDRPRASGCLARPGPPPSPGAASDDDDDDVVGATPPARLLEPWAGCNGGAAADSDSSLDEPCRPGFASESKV
T6 sequence (P49137 whole entry): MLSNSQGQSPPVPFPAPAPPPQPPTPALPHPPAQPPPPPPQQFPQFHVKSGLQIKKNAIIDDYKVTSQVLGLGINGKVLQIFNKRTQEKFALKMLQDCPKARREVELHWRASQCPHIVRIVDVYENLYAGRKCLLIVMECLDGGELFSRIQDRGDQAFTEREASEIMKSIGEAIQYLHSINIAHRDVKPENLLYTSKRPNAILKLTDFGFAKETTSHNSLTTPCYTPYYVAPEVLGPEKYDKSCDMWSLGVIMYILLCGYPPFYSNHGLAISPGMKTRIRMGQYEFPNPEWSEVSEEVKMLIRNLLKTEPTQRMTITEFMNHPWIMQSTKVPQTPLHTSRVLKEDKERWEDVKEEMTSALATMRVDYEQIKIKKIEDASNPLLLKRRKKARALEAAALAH
T19 sequence (P54762 18-984): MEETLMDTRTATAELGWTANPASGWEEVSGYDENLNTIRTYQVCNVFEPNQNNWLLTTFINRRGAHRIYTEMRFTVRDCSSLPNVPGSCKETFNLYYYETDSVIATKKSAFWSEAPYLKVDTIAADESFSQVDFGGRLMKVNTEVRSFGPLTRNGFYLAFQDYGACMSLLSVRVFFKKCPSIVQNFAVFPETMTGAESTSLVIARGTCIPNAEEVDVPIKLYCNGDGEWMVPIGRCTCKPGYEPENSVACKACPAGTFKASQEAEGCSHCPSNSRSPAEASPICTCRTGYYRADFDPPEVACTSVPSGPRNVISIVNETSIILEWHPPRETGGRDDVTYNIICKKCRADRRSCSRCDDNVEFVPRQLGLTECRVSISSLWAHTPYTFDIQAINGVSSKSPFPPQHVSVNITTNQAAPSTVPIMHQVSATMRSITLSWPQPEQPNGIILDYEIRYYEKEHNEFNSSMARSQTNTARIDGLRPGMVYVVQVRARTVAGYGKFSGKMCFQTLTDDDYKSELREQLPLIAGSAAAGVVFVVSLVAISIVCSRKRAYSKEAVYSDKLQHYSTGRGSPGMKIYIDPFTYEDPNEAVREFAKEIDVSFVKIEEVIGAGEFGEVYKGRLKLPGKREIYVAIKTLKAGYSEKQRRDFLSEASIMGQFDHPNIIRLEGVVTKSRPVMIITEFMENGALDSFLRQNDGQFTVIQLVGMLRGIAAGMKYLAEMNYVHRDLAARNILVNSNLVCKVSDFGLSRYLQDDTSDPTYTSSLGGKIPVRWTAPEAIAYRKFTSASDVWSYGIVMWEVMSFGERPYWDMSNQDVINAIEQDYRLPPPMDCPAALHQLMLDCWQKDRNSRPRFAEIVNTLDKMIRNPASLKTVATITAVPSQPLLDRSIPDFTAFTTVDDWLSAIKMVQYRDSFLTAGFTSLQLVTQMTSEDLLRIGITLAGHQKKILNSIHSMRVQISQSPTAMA
T13 sequence (P49674 whole entry): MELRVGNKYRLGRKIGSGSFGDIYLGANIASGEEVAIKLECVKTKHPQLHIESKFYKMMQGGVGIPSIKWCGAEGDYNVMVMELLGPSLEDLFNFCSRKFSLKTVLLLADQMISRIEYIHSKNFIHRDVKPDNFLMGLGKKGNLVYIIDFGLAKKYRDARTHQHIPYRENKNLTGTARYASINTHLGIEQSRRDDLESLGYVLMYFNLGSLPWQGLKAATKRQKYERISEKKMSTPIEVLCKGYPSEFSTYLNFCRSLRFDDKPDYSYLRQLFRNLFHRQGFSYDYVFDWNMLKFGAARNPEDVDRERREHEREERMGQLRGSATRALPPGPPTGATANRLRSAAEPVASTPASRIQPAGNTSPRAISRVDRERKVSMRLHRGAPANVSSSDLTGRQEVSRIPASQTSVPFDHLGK
T1 sequence (P68400 whole entry): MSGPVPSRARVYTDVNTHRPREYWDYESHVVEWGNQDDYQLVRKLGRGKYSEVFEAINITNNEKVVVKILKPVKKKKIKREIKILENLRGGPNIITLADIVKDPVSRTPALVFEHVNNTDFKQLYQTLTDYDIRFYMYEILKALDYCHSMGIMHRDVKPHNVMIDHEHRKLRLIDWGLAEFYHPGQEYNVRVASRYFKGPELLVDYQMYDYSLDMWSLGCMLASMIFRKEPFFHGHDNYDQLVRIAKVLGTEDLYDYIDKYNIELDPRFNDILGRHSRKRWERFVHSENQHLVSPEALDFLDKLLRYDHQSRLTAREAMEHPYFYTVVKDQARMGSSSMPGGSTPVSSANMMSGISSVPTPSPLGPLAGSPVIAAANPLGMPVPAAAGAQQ
T18 sequence (Q9UPE1 whole entry): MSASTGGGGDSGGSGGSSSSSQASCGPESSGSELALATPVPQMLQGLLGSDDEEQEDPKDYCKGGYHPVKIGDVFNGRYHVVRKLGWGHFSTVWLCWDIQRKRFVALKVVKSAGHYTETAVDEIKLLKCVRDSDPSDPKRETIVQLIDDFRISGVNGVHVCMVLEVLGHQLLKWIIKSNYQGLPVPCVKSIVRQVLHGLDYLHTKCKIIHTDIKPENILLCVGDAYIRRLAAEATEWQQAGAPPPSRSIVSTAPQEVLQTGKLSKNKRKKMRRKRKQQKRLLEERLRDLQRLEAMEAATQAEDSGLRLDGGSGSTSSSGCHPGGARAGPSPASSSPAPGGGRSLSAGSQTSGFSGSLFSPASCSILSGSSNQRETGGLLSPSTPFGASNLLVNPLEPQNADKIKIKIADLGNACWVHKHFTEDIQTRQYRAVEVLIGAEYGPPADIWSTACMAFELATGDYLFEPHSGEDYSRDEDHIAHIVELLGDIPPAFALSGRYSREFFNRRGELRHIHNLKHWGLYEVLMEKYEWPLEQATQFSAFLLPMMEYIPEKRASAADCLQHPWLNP
T2 sequence (P00519 whole entry E255K): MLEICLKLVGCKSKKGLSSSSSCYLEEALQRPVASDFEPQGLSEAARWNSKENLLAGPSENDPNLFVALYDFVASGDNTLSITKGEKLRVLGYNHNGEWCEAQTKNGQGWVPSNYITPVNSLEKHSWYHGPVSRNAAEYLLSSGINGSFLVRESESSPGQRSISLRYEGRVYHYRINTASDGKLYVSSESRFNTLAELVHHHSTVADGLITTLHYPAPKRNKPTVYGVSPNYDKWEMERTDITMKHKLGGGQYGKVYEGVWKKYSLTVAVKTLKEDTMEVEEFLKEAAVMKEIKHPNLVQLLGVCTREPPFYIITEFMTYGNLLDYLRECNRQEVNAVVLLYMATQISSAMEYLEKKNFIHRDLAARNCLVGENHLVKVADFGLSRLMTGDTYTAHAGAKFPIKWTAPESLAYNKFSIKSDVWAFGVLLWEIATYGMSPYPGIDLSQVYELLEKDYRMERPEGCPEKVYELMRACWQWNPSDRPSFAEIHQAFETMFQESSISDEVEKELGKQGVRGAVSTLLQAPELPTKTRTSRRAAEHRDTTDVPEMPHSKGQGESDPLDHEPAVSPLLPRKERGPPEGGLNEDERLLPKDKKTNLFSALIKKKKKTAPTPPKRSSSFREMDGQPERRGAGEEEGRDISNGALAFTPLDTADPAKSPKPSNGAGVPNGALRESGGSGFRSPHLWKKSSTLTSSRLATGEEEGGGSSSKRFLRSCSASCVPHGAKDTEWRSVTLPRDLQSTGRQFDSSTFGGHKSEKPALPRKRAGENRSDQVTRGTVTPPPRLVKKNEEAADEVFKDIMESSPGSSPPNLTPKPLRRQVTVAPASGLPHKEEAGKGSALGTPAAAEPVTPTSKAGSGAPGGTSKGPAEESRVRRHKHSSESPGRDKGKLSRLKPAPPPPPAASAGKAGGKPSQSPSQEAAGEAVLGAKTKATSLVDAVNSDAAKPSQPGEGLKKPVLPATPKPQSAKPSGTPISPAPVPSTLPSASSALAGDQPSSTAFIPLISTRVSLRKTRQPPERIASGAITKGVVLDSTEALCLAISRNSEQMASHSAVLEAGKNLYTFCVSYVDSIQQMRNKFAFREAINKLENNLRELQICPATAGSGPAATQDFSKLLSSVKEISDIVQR
T14 sequence (P00519 whole entry F317I): as the sequence (P00519 whole entry E255K) above, with K255E, F317I counted along it

Cc1cn(CCN2CCN(c3ccccc3-c3cc(C#N)cc(C(=O)NCCCN4CCCC4)c3)CC2)c2ccccc12 [LLY-507, 3-cyano-5-{2-[4-[2-(3-methylindol-1-yl)ethyl]piperazin-1-yl]-phenyl}-N-[(3-pyrrolidin-1-yl)propyl]benzamide]
IC50 (hCSNK2A1): > 20 µM | IC50 (hABL1(pE255K)): > 20 µM | % Effect, Potentiation (hADORA3): -7.3% | % Effect, Potentiation (hADRα2A [1]): -20.5% | IC50 (hMEK6): > 20 µM | IC50 (hMAPKAPK2): > 20 µM | IC50 [2]: > 20 µM | IC50 (hYANK2): > 20 µM | IC50 (hRAF1): > 20 µM | IC50 (hHIPK3): > 20 µM | IC50 (hACVR2A): > 20 µM | IC50 (hRIPK5): > 20 µM | IC50 (hCSNK1E): > 20 µM | inhibition at 10 µM (hADRβ1): -6% | IC50 (hABL1(pF317I)): > 20 µM | IC50 (hRET(M918T)): > 20 µM | IC50 (hJAK2(JH1Dom.-catalytic)): > 20 µM | IC50 (hPIP5K1A): 16.4 µM | IC50 (hSRPK3): > 20 µM | IC50 (hEPHB1): > 20 µM | inhibition at 10 µM (hADRα2A [3]): -27.7% | IC50 (hHIPK1): > 20 µM | IC50 (hBMX): > 20 µM | IC50 (hLTK): > 20 µM | IC50 (hMKNK2): > 20 µM
